Data on eight molecules can be found in PubChem BioAssay AID1259411 (Chemical Carcinogenesis Research Information System (CCRIS), 2018).

The test system of this data set is rodent carcinogenicity bioassays, tumor incidence. As to the kind of experiment: CCRIS carcinogenicity studies. The method in brief:
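NCI-built, expert-reviewed records of carcinogenicity and related test outcomes (mutagenicity, tumor promotion/inhibition) compiled from published and report sources, historical span 1985-2011, not updated.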

Calls of active or inactive are those of the source. The rule behind the calls is not given here.

As for `Nc1ccccc1C(=O)OC/C=C/c1ccccc1`, the carcinogen call by setting is: (Species: MOUSE, Strain/Sex: B6C3F1/FEMALE, Route: ORAL, Dose: 0, 15000, 30000 PPM IN DIET FOR 103 WK (STUDY DURATION: 105-107 WK), Dose: 0, 15000, 30000 PPM IN DIET FOR 103 WK (STUDY DURATION: 105-107 WK), Tumor Site: Type of Lesion: LIVER: HEPATOCELLULAR ADENOMA OR CARCINOMA) “active; positive”; (Species: MOUSE, Strain/Sex: B6C3F1/MALE, Route: ORAL, Dose: 0, 15000, 30000 PPM IN DIET FOR 103 WK (STUDY DURATION: 105-107), Dose: 0, 15000, 30000 PPM IN DIET FOR 103 WK (STUDY DURATION: 105-107), Tumor Site: Type of Lesion: LIVER: HEPATOCELLULAR ADENOMA OR CARCINOMA) “active; positive”; (Species: RAT, Strain/Sex: F344/FEMALE, Route: ORAL, Dose: 0, 15000, 30000 PPM IN DIET FOR 103 WK (STUDY DURATION: 105-107 WK), Dose: 0, 15000, 30000 PPM IN DIET FOR 103 WK (STUDY DURATION: 105-107 WK)) “inactive; negative”; (Species: RAT, Strain/Sex: F344/MALE, Route: ORAL, Dose: 0, 15000, 30000 PPM IN DIET FOR 103 WK (STUDY DURATION: 105-107), Dose: 0, 15000, 30000 PPM IN DIET FOR 103 WK (STUDY DURATION: 105-107), Tumor Site: Type of Lesion: PANCREAS: ACINAR CELL ADENOMA OR CARCINOMA, KIDNEY (CORTEX): ADENOMA OR ADENOCARCINOMA (NOS)) “active; positive”.
In the case of `Cc1ccc(C)c(OCCCC(C)(C)C(=O)O)c1`, the carcinogen call (Species: RAT, Strain/Sex: STRAIN-CD/MALE, Route: ORAL, Dose: 30, 300 MG/KG IN DIET FOR 2 YR, Tumor Site: Type of Lesion: LIVER: NEOPLASTIC NODULE, CARCINOMA, TESTES: INTERSTITIAL CELL TUMOR) is “active; positive”.
With `Cc1cc2ccccc2c2ccc3c(c12)C=C[C@@H](O)[C@@H]3O`, the carcinogen call was “active; positive” (Species: MOUSE, Strain/Sex: ICR/FEMALE, Route: INTRAPERITONEAL, Dose: 8 NMOL/5 µL DMSO ON DAY 1, 16 NMOL/10 µL ON DAY 8, AND 32 NMOL/20 µL ON DAY 15 OF AGE (STUDY DURATION: 35 WK), Tumor Site: Type of Lesion: LUNG: TUMORS) and “active; positive” (Species: MOUSE, Strain/Sex: ICR/MALE, Route: INTRAPERITONEAL, Dose: 8 NMOL/5 µL DMSO ON DAY 1, 16 NMOL/10 µL ON DAY 8, AND 32 NMOL/20 µL ON DAY 15 OF AGE (STUDY DURATION: 35 WK), Tumor Site: Type of Lesion: LUNG: TUMORS, LIVER: TUMORS).
For the molecule `Nc1ccc(N)cc1`, the carcinogen call runs as follows: (Species: MOUSE, Strain/Sex: B6C3F1/FEMALE, Route: ORAL, Dose: 0, 625, 1250 PPM IN DIET, Dose: 0, 625, 1250 PPM IN DIET) “inactive; negative”; (Species: MOUSE, Strain/Sex: B6C3F1/MALE, Route: ORAL, Dose: 0, 625, 1250 PPM IN DIET, Dose: 0, 625, 1250 PPM IN DIET) “inactive; negative”; (Species: RAT, Strain/Sex: F344/FEMALE, Route: ORAL, Dose: 0, 625, 1250 PPM IN DIET, Dose: 0, 625, 1250 PPM IN DIET) “inactive; negative”; (Species: RAT, Strain/Sex: F344/MALE, Route: ORAL, Dose: 0, 625, 1250 PPM IN DIET, Dose: 0, 625, 1250 PPM IN DIET) “inactive; negative”.
With `COc1cc2c(c3oc(=O)c4c(c13)CCC4=O)[C@]1(O)C=CO[C@@H]1O2`, the carcinogen call runs as follows: (Species: FISH, Strain/Sex: RAINBOW TROUT, Route: ORAL, Dose: 0, 1.5, 7.5, UG/KG DIET FOR 5.5 MO (STUDY DURATION: 5.5 MO), Dose: 0, 1.5, 7.5, UG/KG DIET FOR 5.5 MO (STUDY DURATION: 5.5 MO), Tumor Site: Type of Lesion: LIVER: HEPATOMA) “active; positive”; (Species: RAT, Strain/Sex: F344/MALE, Route: ORAL, Dose: 0, 0.5, 5, 50 PPB IN AGAR BASED SEMISYNTHETIC DIET FOR STUDY DURATION (STUDY DURATION: 21 MO), Dose: 0, 0.5, 5, 50 PPB IN AGAR BASED SEMISYNTHETIC DIET FOR STUDY DURATION (STUDY DURATION: 21 MO), Tumor Site: Type of Lesion: LIVER: NEOPLASTIC NODULE, HEPATOCELLULAR CARCINOMA) “active; positive”; (Species: TROUT, Strain/Sex: MT. SHASTA RAINBOW, Route: ORAL, Dose: 4, 16, 32, 64 PPB IN DIET FOR 12 MO, Dose: 4, 16, 32, 64 PPB IN DIET FOR 12 MO, Tumor Site: Type of Lesion: LIVER: HEPATOMA) “active; positive”.
Turning to `COc1cc2c(c3oc(=O)c4c(c13)CC[C@@H]4O)[C@@H]1C=CO[C@@H]1O2`, the carcinogen call runs as follows: (Species: FISH, Strain/Sex: SHASTA RAINBOW TROUT/MALE, FEMALE, Route: IMMERSION, Dose: 0, 0.01, 0.025, 0.05, 0.1, 0.25, 0.5 PPM SOLUTION IN WATER FOR 1 HR EXPOSURE OF EMBRYOS (STUDY DURATION: 13 MO), Dose: 0, 0.01, 0.025, 0.05, 0.1, 0.25, 0.5 PPM SOLUTION IN WATER FOR 1 HR EXPOSURE OF EMBRYOS (STUDY DURATION: 13 MO), Tumor Site: Type of Lesion: LIVER: TUMORS) “active; positive”; (Species: FISH, Strain/Sex: SHASTA RAINBOW TROUT/MALE, FEMALE, Route: ORAL, Dose: 0, 4, 8, 16, 32, 64 PPB IN DIET FOR 2 WK FOLLOWED BY CONTROL DIET FOR THE DURATION OF STUDY (STUDY DURATION: 9 MO), Dose: 0, 4, 8, 16, 32, 64 PPB IN DIET FOR 2 WK FOLLOWED BY CONTROL DIET FOR THE DURATION OF STUDY (STUDY DURATION: 9 MO), Tumor Site: Type of Lesion: LIVER: TUMOR) “active; positive”; (Species: RAT, Strain/Sex: F344/MALE, Route: ORAL, Dose: 50, 200 PPB IN DIET 2/WK FOR 12 MO, Tumor Site: Type of Lesion: LIVER: HEPATOCELLULAR CARCINOMA) “active; positive”; (Species: TROUT, Strain/Sex: MT. SHASTA RAINBOW, Route: ORAL, Dose: 29 PPB IN DIET FOR 12 MO, Tumor Site: Type of Lesion: LIVER: HEPATOCELLULAR CARCINOMA) “active; positive”.
Regarding `O=C1c2ccccc2C(=O)C1c1ccc2ccccc2n1`, the carcinogen call by setting is: (Species: RAT, Strain/Sex: F344/FEMALE, Route: ORAL, Dose: 0, 500, 1700, 5000 PPM IN DIET FOR 106 WK (STUDY DURATION: 111 WK), Dose: 0, 500, 1700, 5000 PPM IN DIET FOR 106 WK (STUDY DURATION: 111 WK), Tumor Site: Type of Lesion: LIVER: HEPATOCELLULAR ADENOMA OR CARCINOMA) “active; positive”; (Species: RAT, Strain/Sex: F344/MALE, Route: ORAL, Dose: 0, 500, 1700, 5000 PPM IN DIET FOR 105 WK (STUDY DURATION: 110 WK), Dose: 0, 500, 1700, 5000 PPM IN DIET FOR 105 WK (STUDY DURATION: 110 WK), Tumor Site: Type of Lesion: KIDNEY(RENAL TUBULE): ADENOMA OR CARCINOMA, LIVER: HEPATOCELLULAR ADENOMA, ORAL CAVITY: SQUAMOUS CELL PAPILLOMA, SQUAMOU, Tumor Site: Type of Lesion: KIDNEY(RENAL TUBULE): ADENOMA OR CARCINOMA, LIVER: HEPATOCELLULAR ADENOMA, ORAL CAVITY: SQUAMOUS CELL PAPILLOMA, SQUAMOU) “active; positive”.
With `COC(=O)N(C(=O)N1CO[C@@]2(C(=O)OC)Cc3cc(Cl)ccc3C2=N1)c1ccc(OC(F)(F)F)cc1`, the carcinogen call runs as follows: (Species: Mouse, Strain/Sex: Crl:CD-1(ICR)BR/Female (70/Group), Route: Oral, Dose: 0, 20, 100, 125/150/200 ppm for 18 mo, study duration 18 mo, Dose: 0, 20, 100, 125/150/200 ppm for 18 mo, study duration 18 mo) “inactive; negative”; (Species: Mouse, Strain/Sex: Crl:CD-1(ICR)BR/Male (70/Group), Route: Oral, Dose: 0, 20, 100, 125/150/200 ppm for 18 mo, study duration 18 mo, Dose: 0, 20, 100, 125/150/200 ppm for 18 mo, study duration 18 mo) “inactive; negative”.
